The target in assay [1] is cytochrome b5. As to conditions: read-out: affinity of binding to cytochrome b5; cited from earlier work.
Assay [2] addresses cytochrome b5 (Rattus norvegicus, UniProt P00173). Briefly: HSQC perturbation mapping: concentration dependence of hexacyclen-induced heteronuclear correlation peak shifts. Type of assay: binding. As to conditions: 1H-15N HSQC peak shifts, hexacyclen 0.5 to 8 mM, pH 7.0, 1 mM phosphate buffer, 40° C; read-out: dissociation constant. The method, then:
Hexacyclen (1,4,7,10,13,16-hexaazacyclooctadecane)(Richman, J. E.; Atkins, T. J. 1974, J. Am. Chem. Soc., 96, 2268-2269) binds to cytochrome b5 such the HSQC spectra of cytochrome b5-hexacyclen is similar to the HSQC spectra of cytochrome b5-hemoglobin. The concentration dependence of hexacyclen-induced heteronuclear correlation peak shifts indicates a dissociation constant of roughly 2 mM. FIG. 2 illustrates the heteronuclear correlation spectra (HSQC spectra) of a 2 mM solution of cytochrome b5 by itself (black contours) and that of a solution containing 2 mM cytochrome b5 and 4 mM hexacyclen (gray contours). The inset in the upper left hand corner of the figure contains a plot of the hexacyclen dependence of the shifts in the peak to peak separation of aspartate 60 (D60) at concentrations of hexacylen ranging from 0.5 to 8 mM. The inset at the upper right is a model for the interaction of hexacyclen based on the shifts observed in the HSQC perturbation study. Solutions were buffered to a pH of 7.0 with 1 mM phosphate buffer and the spectra were recorded at 40° C. […]
The binding of the R1 and R3 moieties to cytochrome b5 is characterized using HSQC perturbation mapping experiments. […] Solutions were buffered to a pH of 7.0 with 1 mM phosphate buffer and the spectra were recorded at 40° C. […]

Another assay deals with sickle cell patients. As to conditions: nearly 300 sickle cell patients; cited from earlier work.

Sequence of cytochrome b5 (Rattus norvegicus, UniProt P00173) (P00173 whole entry): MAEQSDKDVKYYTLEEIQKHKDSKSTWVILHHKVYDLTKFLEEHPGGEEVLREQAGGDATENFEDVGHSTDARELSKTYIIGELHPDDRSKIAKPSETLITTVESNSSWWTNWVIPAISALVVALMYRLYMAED

As for `Nc1ncnc2c1ncn2[C@H]1O[C@@H](COP(=O)(O)OP(=O)(O)OP(=O)(O)O)C(O)C1O` (stereo partly drawn) [ATP, Adenosine 5′-triphosphate], the Kd at cytochrome b5 [1] was 180 µM.
`C1CNCCNCCNCCNCCNCCN1` [Hexacyclen, 1,4,7,10,13,16-hexaazacyclooctadecane]: on cytochrome b5 [2], the Kd was about 2000 µM.
With `NC(=O)NO` [hydroxyurea], the “occurrence of vaso-occlusive crises, reduced to % of that observed” value with sickle cell patients is “roughly 50%”.

(Values after US20060147411A1, “Novel compounds for the treatment of sickle cell disease” (University of Maryland, Baltimore, priority 2003, published 2006).)
